{
  "source": "patent US10189842B2",
  "about": "(Agency for Science, Technology and Research, priority 2013, dated 2019)",
  "key": {"V5-tagged Wnt3a": {"tested_on": "V5-tagged Wnt3a", "assay": "Wnt3A palmitoylation assay", "format": "cell-based", "details": "100 nM compound, HeLa cells, FIG. 4", "source_text": "Wnt3A Palmitoylation Assay:\nThe assay used to determine the inhibition of the palmitoylation of Wnts by compound was described by Yap et al, (Yap MC, Kostiuk MA, Martin DD, Perinpanayagam MA, Hak PG, Siddam A, Majjigapu JR, Rajaiah G, Keller BO, Prescher JA, Wu P, Bertozzi CR, Falck JR, Berthiaume LG. 2010. Rapid and selective detection of fatty acylated proteins using omega-alkynyl-fatty acids and click chemistry. J Lipid Res. 51(6):1566-1580) with some modification. 3×10^6 HeLa cells were seeded in 10 cm culture dish and incubated at 37° C. overnight. […] After six hours, the cells were washed with PBS and treated with 100 μM alkyne palmitate in medium with 5% BSA. 100 nM compound or DMSO was added and the cells were incubated overnight at 37° C. The cells were lyzed and 600 μg cell lysate was collected and incubated with anti-V5 antibody (Invitrogen) followed by the pull down of V5-Wnt3a with the addition of Protein A/G agarose beads (Thermo scientific). The pulled down lysates containing V5-Wnt3a was click-reacted with biotin-azide (Invitrogen). The biotin-labelled protein lysate was then separated on SDS-PAGE and transferred to a nitrocellulose membrane. The membrane was incubated with primary anti-V5 antibody, followed by secondary anti-mouse Dylight 680 (Thermo scientific) to detect V5-Wnt3a. […]"}, "MMTV-Wnt1 tumor": {"tested_on": "MMTV-Wnt1 tumor", "assay": "MMTV-Wnt1 mouse model", "format": "in vivo", "details": "for % T/C / % TGI / NTRD / T/C / TRD: Day 14", "procedure": "8-10 weeks old Female BALBc mice were anesthetised with 150 mg/kg Ketamine+75 mg/kg Xylazine. Under aseptic conditions, skin near the 4th mammary fat pad was incised. Mammary fat pad was tweaked with forceps and tumor fragment ˜2 mm^3 was implanted. The incision was closed using a tissue adhesive. Animals were randomised into groups of eight and treated daily with the test compounds for 14 days. Tumors were measured in two dimensions using calipers, and volume was calculated using the formula: Tumor Volume (mm^3)=[…]. Maximum tumor volume limit was 2000 mm^3."}, "HEK293-STF3A cells": {"tested_on": "HEK293-STF3A cells", "assay": "STF3A assay (luciferase reporter)", "format": "cell-based, Human", "details": "Homo sapiens, 24 h, 1 day of treatment", "how_it_was_run": "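HEK293 cells carrying the STF reporter and expressing Wnt3A, seeded 2×10^4 per well overnight, then treated 1 day with compound at final 50 μM to 1.5 nM. Luciferase activity read by luminescence after Steady-Glo reagent, 10 min at room temperature.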"}, "AsPC-1 cells": {"tested_on": "AsPC-1 cells", "assay": "Soft agar assay, AsPC-1", "format": "cell-based", "details": "for IC50: Homo sapiens, ASPC1", "procedure": "(§1) AsPC-1 cells were maintained in RPMI164 supplemented with 10% FBS, 2 mM L-glutamine and P/S (100 units/ml penicillin and 100 μg/ml streptomycin). HPAF-II cells were maintained in MEM (Eagles′) supplemented with 10% FBS, 2 mM L-glutamine and P/S (100 units/ml penicillin and 100 μg/ml streptomycin). CFPAC-1 cells were maintained in Iscove MEM supplemented with 10% FBS, 2 mM L-glutamine and P/S (100 units/ml penicillin and 100 μg/ml streptomycin).\n(§2) 600 μl of 0.6% agar was added to 24-well plate to form the base layer. Then a middle layer of 0.36% agar (containing 5000 cells and serially diluted compound) was added on to the base layer. Finally 500 μl of fresh growth medium was added to the top of the middle layer. The plates were incubated at 37° C. with 5% carbon dioxide in a humidified incubator for 2 weeks. Formation of colonies was observed using a light microscope. When the colony size was larger than 500 μm, 70 μl MTT (5 mg/ml) was added to each well and the plates were incubated at 37° C. for at least 2 hours. Colonies were counted with GelCount® instrument. The colony counts were plotted against compound concentrations using the GraphPad Prism software. The software was also used to perform non-linear curve fitting and calculation of compound concentration that inhibited 50% colony formation."}, "CFPAC-1 cells": {"tested_on": "CFPAC-1 cells", "assay": "Soft agar assay, CFPAC-1", "format": "cell-based", "details": "for IC50: Homo sapiens", "procedure": "as §1, §2"}, "mammalian PORCN": {"tested_on": "mammalian PORCN", "assay": "PORCN-null HT1080 cells transfected with mammalian PORCN, WNT3A, STF reporter", "format": "cell-based", "details": "luciferase, FIG. 1", "procedure": "PORCN-null HT1080 cells were transfected with mammalian or Xenopus PORCN expression plasmids, along with WNT3A, STF reporter and mCherry as transfection control. 6 hours after transfection, cells were treated with the compounds or DMSO as indicated, and the following day assayed for luciferase. Xenopus PORCN was resistant to the inhibitory effects of compounds."}, "HPAF-II cells": {"tested_on": "HPAF-II cells", "assay": "Soft agar assay, HPAF-II", "format": "cell-based", "details": "for IC50: Homo sapiens", "procedure": "as §1, §2"}},
  "note": "Like-named read-outs stand apart in the source and are kept apart here.",
  "data": [
    {"smiles": "Cc1cc2n(n1)CCCN2C(=O)CCC(=O)Nc1ccc(-c2cccnc2)nn1", "note": "[Compound 51, 4-(2-methyl-6,7-dihydropyrazolo[1,5-a]pyrimidin-4(5H)-yl)-4-oxo-N-(6-(pyridin-3-yl)pyridazin-3-yl)butanamide]", "values": [
      {"measurement": "Palmitoylation of Wnt3a", "setting": "V5-tagged Wnt3a", "result": "inhibited"},
      {"measurement": "% T/C", "setting": "MMTV-Wnt1 tumor; 1 mg/Kg daily", "result": 37.5, "unit": "%"},
      {"measurement": "% TGI", "setting": "MMTV-Wnt1 tumor; 1 mg/Kg daily", "result": 68, "unit": "%"},
      {"measurement": "NTRD", "setting": "MMTV-Wnt1 tumor; 1 mg/Kg daily", "result": "1/8"},
      {"measurement": "T/C", "setting": "MMTV-Wnt1 tumor; 1 mg/Kg daily", "result": 0.375},
      {"measurement": "TRD", "setting": "MMTV-Wnt1 tumor; 1 mg/Kg daily", "result": "0/8"},
      {"measurement": "% T/C", "setting": "MMTV-Wnt1 tumor; 3 mg/Kg daily", "result": 38.3, "unit": "%"},
      {"measurement": "% TGI", "setting": "MMTV-Wnt1 tumor; 3 mg/Kg daily", "result": 67, "unit": "%"},
      {"measurement": "NTRD", "setting": "MMTV-Wnt1 tumor; 3 mg/Kg daily", "result": "0/8"},
      {"measurement": "T/C", "setting": "MMTV-Wnt1 tumor; 3 mg/Kg daily", "result": 0.383},
      {"measurement": "TRD", "setting": "MMTV-Wnt1 tumor; 3 mg/Kg daily", "result": "0/8"},
      {"measurement": "% T/C", "setting": "MMTV-Wnt1 tumor; 10 mg/Kg daily", "result": 16.0, "unit": "%"},
      {"measurement": "% TGI", "setting": "MMTV-Wnt1 tumor; 10 mg/Kg daily", "result": 91, "unit": "%"},
      {"measurement": "NTRD", "setting": "MMTV-Wnt1 tumor; 10 mg/Kg daily", "result": "0/8"},
      {"measurement": "T/C", "setting": "MMTV-Wnt1 tumor; 10 mg/Kg daily", "result": 0.160},
      {"measurement": "TRD", "setting": "MMTV-Wnt1 tumor; 10 mg/Kg daily", "result": "0/8"},
      {"measurement": "tumor growth", "setting": "MMTV-Wnt1 tumor; treated mice, FIG. 2 and FIG. 3", "result": "decreased tumor growth in all the treated mice"},
      {"measurement": "IC50", "setting": "HEK293-STF3A cells", "result": "< 100", "unit": "nM"},
      {"measurement": "Maximum inhibition", "setting": "AsPC-1 cells; AsPC-1", "result": 76, "unit": "%"},
      {"measurement": "IC50", "setting": "AsPC-1 cells; AsPC-1, Test 1, read-out: Test 1 IC50 (colony growth inhibitory concentration)", "result": 24, "unit": "nM"},
      {"measurement": "IC50", "setting": "AsPC-1 cells; AsPC-1, Test 2, read-out: Test 2 IC50 (colony growth inhibitory concentration)", "result": 10, "unit": "nM"},
      {"measurement": "IC50", "setting": "AsPC-1 cells; AsPC-1, mean of two independent experiments, read-out: Mean IC50 (colony growth inhibitory concentration)", "result": 17, "unit": "nM"},
      {"measurement": "Maximum inhibition", "setting": "CFPAC-1 cells; CFPAC-1", "result": 79, "unit": "%"},
      {"measurement": "IC50", "setting": "CFPAC-1 cells; CFPAC-1, Test 1, read-out: Test 1 IC50 (colony growth inhibitory concentration)", "result": 58, "unit": "nM"},
      {"measurement": "IC50", "setting": "CFPAC-1 cells; CFPAC-1, Test 2, read-out: Test 2 IC50 (colony growth inhibitory concentration)", "result": 39, "unit": "nM"},
      {"measurement": "IC50", "setting": "CFPAC-1 cells; CFPAC-1, mean of two independent experiments, read-out: Mean IC50 (colony growth inhibitory concentration)", "result": 49, "unit": "nM"},
      {"measurement": "inhibition of the activity of mammalian porcupine", "setting": "mammalian PORCN", "result": "inhibit the activity of mammalian porcupine"},
      {"measurement": "Maximum inhibition", "setting": "HPAF-II cells", "result": 97, "unit": "%"},
      {"measurement": "IC50", "setting": "HPAF-II cells; Test 1, read-out: Test 1 IC50 (colony growth inhibitory concentration)", "result": 8, "unit": "nM"},
      {"measurement": "IC50", "setting": "HPAF-II cells; Test 2, read-out: Test 2 IC50 (colony growth inhibitory concentration)", "result": 10, "unit": "nM"},
      {"measurement": "IC50", "setting": "HPAF-II cells; mean of two independent experiments, read-out: Mean IC50 (colony growth inhibitory concentration)", "result": 9, "unit": "nM"}
    ]}
  ]
}
